Laboratory results from US11351130B2, “Prevention and reversal of inflammation induced DNA damage” (Indiana University Research and Technology Corporation, priority 2017, dated 2022).

What was measured:
[1] = system: sensory neuronal cultures; assay: phospho-H2AX immunoblotting in sensory neuronal cultures (Example 3); format: cell-based, rat
Protocol: (§1) Primary cultures of sensory neurons were harvested and maintained as previously described (Vasko et al., 2005). Briefly, adult male Sprague-Dawley rats (150-175 g; Harlan, Indianapolis, Ind.) were euthanized by CO2 asphyxiation and dorsal root ganglia (DRG) dissected from all spinal levels, transferred to into a collagenase solution (1 mg/ml), incubated for 1 hour at 37° C., then dissociated by mechanical agitation. Approximately 30,000 cells or 60,000 cells were plated into each well of 12-well or 6-well culture plates, respectively. All culture dishes were precoated with poly-D-lysine and laminin. Cells were maintained in F-12 media supplemented with 10% horse serum, 2 mM glutamine, 100 μg/ml Normocin™, 50 μg/ml penicillin, 50 μg/ml streptomycin, 50 μM 5-fluoro-2′-deoxyuridine (Invitrogen), 150 μM uridine, and 30 ng/ml of NGF in 3% CO2 at 37° C. Growth medium was changed every other day. Experiments were performed after cells were maintained in culture for 12-14 days.
Immunoblotting was performed as previously described (Kelley et al., 2014). Briefly, cells were lysed in RIPA buffer (Santa Cruz Biotechnology; Santa Cruz, Calif., USA) and protein was quantified using the Lowey assay. Proteins were separated by electrophoresis on a 4-12% SDS-polyacrylamide gel. The gel was transferred to a PVDF membrane and incubated overnight at 4° C. in Tris-buffered saline containing 0.1% Tween-20 (TBST) and 5% nonfat dry milk while gently agitating. Mouse monoclonal antihuman Ape1 antibodies (1:500), mouse monoclonal anti-phospho H2AX antibodies (1:1000), or (3-Actin monoclonal antibody (1:1000) were added to the blocking solution and incubated overnight at room temperature while gently agitating. Antibody binding was detected following appropriate secondary antibody methods using chemiluminescence. The density of the bands was measured using QUALITYONE® software from Bio-Rad (Hercules, Calif.) and data expressed as density normalized to actin.

[2] = system: neuronal cultures derived from DRG; assay: pH2A.X immunoblotting in DRG neuronal cultures (Example 1); format: cell-based, rat
Protocol: (§2) Dorsal root ganglia (DRG) were dissected from all spinal levels of adult male (150-175 g) Sprague-Dawley rats (Envigo, Indianapolis, Ind.) and the cells were dissociated as previously described (Kelley et al., 2014). Briefly, the rats were euthanized by CO2 asphyxiation. DRGs were transferred into collagenase solution (1 mg/ml) and incubated for 1 hour at 37° C. The digested DRGs were then rinsed with growth medium, centrifuged and dissociated by mechanical agitation. Approximately 30,000 cells were plated into each well of 12-well culture plates. All culture dishes were precoated with poly-D-lysine and laminin. Cells were maintained in F-12 media supplemented with 10% horse serum, 2 mM glutamine, 100 μg/ml Normocin, 50 μg/ml penicillin, 50 μg/ml streptomycin, 50 μM 5-fluoro-2′-deoxyuridine, 150 μM uridine, and 30 ng/ml of NGF in 3% CO2 at 37° C. Growth medium was changed every other day.
(§3) Small interfering RNAs to APE1 (APE1siRNA) and scrambled siRNA (SCsiRNA) controls were used to decrease APE1 protein expression in sensory neuronal cell cultures and as controls, respectively, as described previously (Vasko et al., 2005, Jiang et al., 2008a). On day 3 in culture, the growth media was replaced with 0.5 ml of Opti-MEM 1 media containing 100 nM of APE1siRNA (5′-[…]-3′ (SEQ ID NO:1)) or SCsiRNA (5′-[…]-3′(SEQ ID NO:2)); (Vasko et al., 2005)) and 10 μl of the transfecting reagent, Neuroporter. On the next day, 0.5 ml of the growth media without antibiotics was added to each well, and after an additional 24 hours the media containing siRNA was replaced with normal growth media.
(§4) Lentiviral constructs containing (1) the CMV promoter, HA-tagged APE1, IRES, and enhanced green fluorescent protein (EGFP); or (2) CMV, IRES, and EGFP were developed. DNA sequencing confirmed the constructs in the pLenti6-R4R2-V5 plasmid containing WT-, C65-, or 226+177-APE1-IRES-EGFP. For lentiviral infections, DRG cells were cultured 5 days before 150 pfu/cell of the lentivirus was added to the media. Two days later, the virus was removed and the cells grown an additional 5 days in regular media.
Tissues or cells were harvested, lysed in RIPA buffer (Santa Cruz Biotechnology; Santa Cruz, Calif., USA), sonicated, and cleared of cellular debris by centrifuging at 4000 RPM for 2 minutes. Protein was quantified using Lowry assay, and electrophoresed in a 12% SDS-polyacrylamide gel. After electrophoresis, proteins were transferred to a PVDF membrane, and blocked with Tris-buffered saline containing 0.1% Tween-20 (TBST) and 5% nonfat dry milk for 1 hour at room temperature while gently agitating. Mouse monoclonal antihuman Ape1 antibodies (1:1000), mouse monoclonal anti-phospho H2AX antibodies (1:1000), mouse monoclonal anti-vinculin antibody (1:1000), and anti-Hemagglutinin (HA) antibody were added to the blocking solution and incubated for 2 hours at room temperature while gently agitating. Antibody binding was detected following appropriate secondary antibody methods using chemiluminescence. The density of the bands was measured using Quantity One software from Bio-Rad (Hercules, Calif.) and data expressed as density normalized to vinculin.

[3] = system: neuronal cultures derived from DRG; assay: CGRP release from DRG neuronal cultures (Example 1); format: cell-based, rat; conditions: for capsaicin-stimulated release of CGRP: 24 hours
Protocol: as §2, §3, §4
After neuronal cultures were treated with the appropriate drugs, the cultures were washed once with HEPES buffer consisting of (in mM) 25 HEPES, 135 NaCl, 3.5 KCl, 2.5 CaCl2, 1 MgCl2, 3.3 D-glucose, and 0.1% bovine serum albumin, pH 7.4 and maintained at 37° C. They were then incubated for successive 10-minute intervals with 0.4 ml of HEPES buffer alone (basal release), with buffer containing 30 nM capsaicin, then with buffer alone (to assess return to basal release). After each incubation, the buffer was removed and the amount of immunoreactive CGRP in each sample was measured using radioimmunoassay as previously described (Chen et al., 1996). After the release experiment, the cells in each well were in 0.4 ml of 0.1 M HCl10 minutes and an aliquot taken to measure total CGRP content in the cultures using radioimmunoassay. Total content (fmol/well) was calculated by adding the total amount released in all incubations to the amount measured in the cells. The release data is calculated as fmol released/well/10 minutes.

[4] = target: T1, APE1 (Homo sapiens, UniProt P27695); assay: redox APE1 electrophoretic mobility shift assay (EMSA); format: biochemical; design: Purified APE1 was reduced with 1.0 mM DTT for 10 minutes; conditions: read-out: redox inhibition IC50
T1 sequence (P27695 whole entry, species assumed, the tested form may be a part): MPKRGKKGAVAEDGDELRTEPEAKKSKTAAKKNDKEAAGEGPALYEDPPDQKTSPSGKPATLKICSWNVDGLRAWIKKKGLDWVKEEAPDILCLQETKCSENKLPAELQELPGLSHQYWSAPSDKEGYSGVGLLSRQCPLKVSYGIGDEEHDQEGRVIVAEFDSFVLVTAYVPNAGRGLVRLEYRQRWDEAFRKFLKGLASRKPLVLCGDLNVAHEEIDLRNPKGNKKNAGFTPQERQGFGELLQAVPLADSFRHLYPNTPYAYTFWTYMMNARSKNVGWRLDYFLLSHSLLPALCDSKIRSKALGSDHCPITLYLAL
Protocol: EMSAs were performed as described (Luo et al., 2012). Purified APE1 was reduced with 1.0 mM DTT for 10 minutes and diluted to a final concentration of 0.006 mM with 0.02 mM DTT in PBS. Reduced APE1 was added to EMSA reaction buffer (10 mM Tris (pH 7.5), 50 mM NaCl, 1 mM MgCl2, 1 mM EDTA, 5% [vol/vol] glycerol) with […] 0.007 mM protein mixture (1:1) of purified truncated c-Jun and c-Fos proteins containing DNA-binding domain and leucine zipper and incubated for 30 minutes at room temperature. The EMSA assay was performed as previously described (Luo et al., 2008; Nyland et al., 2010; Kelley et al., 2011; Luo et al., 2012).

[5] = target: T1, APE1; assay: AP endonuclease DNA repair assay; format: biochemical; conditions: APX2009 in the nanomolar range
Protocol: Inhibition or enhancement of APE1 DNA repair endonuclease activity was performed as previously described (Bapat et al., 2010). The APE1 repair activity assay was performed in a plate assay using two annealed oligonucleotides (5′-6-FAM-GCCCCC*[…]-3′ (SEQ ID NO:3) and 3′-Q-[…]-5′ (SEQ ID NO:4)) containing a quencher on one strand and a fluorescent 6-FAM label with tetrahydrofuran as an AP site mimic. Oligo cleavage at the AP mimic site results in 6-FAM release and detection. The fluorescence was read at five, one-minute intervals using a Tecan Ultra plate reader (Chemical Genomics Core, Indiana University School of Medicine). The rate of the reaction was used to determine the change in APE1 repair activity as compared to the vehicle control.

[6] = system: sensory neuronal cultures; assay: Neuronal cell viability (trypan blue exclusion); format: cell-based
Protocol: as §1
Sensory neuronal culture trypan blue exclusion analysis was performed as previously described (Vasko et al., 2011). Cells were detached by adding a 0.05% trypsin-EDTA solution and media to each well. An equal volume of 0.4% (w/v) trypan blue in PBS was added to the cell suspension and the numbers of living cells (i.e., those that exclude the dye) were counted under a phase contrast microscope using a hemacytometer. Percent survival was calculated as the percent of live cells divided by the total cell number (including dead and live cells).

[7] = system: sensory neurons in culture; format: cell-based, rat
Protocol: as §1
For release experiments, cell cultures were washed with HEPES buffer consisting of (in mM) 25 HEPES, 135 NaCl, 3.5 KCl, 2.5 CaCl2, 1 MgCl2, 3.3 D-glucose, and 0.1% bovine serum albumin, pH 7.4 and maintained at 37° C. They then were incubated for successive 10-minute intervals with 0.4 ml of HEPES buffer alone (basal release), with buffer containing 30 nM capsaicin, then with buffer alone (to assess return to basal release). After each incubation, the buffer was removed and the amount of immunoreactive calcitonin-gene related peptide (CGRP) in each sample was measured using radioimmunoassay (RIA) as previously described (Chen et al., 1996). At the end of the release protocol, CGRP is extracted from the cultures and total content measured using RIA.

[8] = system: NFκB; assay: NF-κB luciferase reporter transactivation assay; format: cell-based; conditions: read-out: inhibition of NFκB binding to the reporter construct, IC50
Protocol: Reporter assays were performed as previously described (Georgiadis et al., 2008; Kelley et al., 2011; Cardoso et al., 2012b; Luo et al., 2012). Cells were transfected with NF-κB-Luciferase construct containing an NF-κB-response promoter and driving the expression of a luciferase gene and a Renilla luciferase control reporter vector pRL-CMV. After a 24-hour transfection period, cells were lysed, and Firefly and Renilla luciferase activities were assayed using Renilla luciferase activity for normalization. All of the transfection experiments were performed in triplicate and repeated at least three times in independent experiments. Data are expressed as mean±standard error from a representative experiment, and Student's t tests were performed.

N.N.[Cl][Pt][Cl] [cisplatin, reference compound]
levels of pH2AX ([1]; 10 μM cisplatin for 24 or 48 hours): significant increase in the levels of pH2AX

MCP-1: Recombinant rat CCL2/MCP-1 protein
levels of pH2A.X over time ([2]; LPS 1 μg/ml, MCP-1 100 ng/ml): induced pH2A.X expression | onset of pH2A.X increase ([2]; LPS 1 μg/ml, MCP-1 100 ng/ml): 16 hours | peak of pH2A.X increase ([2]; LPS 1 μg/ml, MCP-1 100 ng/ml): 24 hours | pH2A.X expression ([2]; SCsiRNA-treated cultures, 24 hours, LPS 3 μg/ml, MCP-1 0.3 μg/ml): enhanced expression of pH2A.X | CGRP release relative to the release in the absence of MCP-1 ([3]; 0.3 μg/ml MCP-1, 24 hours): 142.8% | capsaicin-stimulated release of CGRP ([3]; 0.3 μg/ml): 13.0±0.8 % of total content | capsaicin-stimulated release of CGRP ([3]; 1.0 μg/ml): 15.0±1.0 % of total content | capsaicin-stimulated release of CGRP ([3]; 10.0 μg/ml): 6.3±1.0 % of total content | release of CGRP stimulated by capsaicin ([3]; APE1siRNA-treated cultures, MCP-1 0.3 μg/ml): caused a decrease in CGRP release | release of CGRP stimulated by capsaicin ([3]; SCsiRNA-treated cultures, MCP-1 0.3 μg/ml): enhanced the release of CGRP | total content of CGRP compared with vehicle ([3]; data not shown): similar

Cc1ccc2c(c1)C1(CCN(CCc3nc(-c4ccccc4)oc3C)CC1)OC(=O)N2 [RS 50493]
pH2A.X expression relative to the expression elicited by MCP-1 alone ([2]; 0.3 μg/ml MCP-1 24 hr, RS 50493 1 μM): 8.5% | reduction of LPS-induced increase in pH2A.X expression ([2]; 3.0 μg/ml LPS 24 hr, LPS-RS 2 μg/ml, RS 50493 1 μM, from 1 hour prior): 92.5 % reduction | effect on MCP-1-induced augmentation of CGRP release ([3]; 0.3 μg/ml MCP-1, RS 50493 1 μM): prevented | effect on LPS-induced decrease in CGRP release ([3]; 3.0 μg/ml LPS, LPS-RS 2 μg/ml, RS 50493 1 μM): blocked the decrease in release induced by LPS

COC1=C(/C=C(\C)C(=O)N(C)C)C(=O)c2ccccc2C1=O [APX2032]
IC50 [4]: 1 µM | APE1 repair (endonuclease) activity [5]: no effect | effect on cisplatin-induced cell death ([6]; 20 μM for 48 hours prior to and throughout the cisplatin treatment (24 hours)): did not attenuate the cisplatin-induced cell death | cell viability, drug alone ([6]; 20 μM or 40 μM, 24 hours): significant reduction in cell viability | cell death, drug alone ([6]; 20 or 40 μM, 72 hours (data not shown)): significant increase in cell death | effect on cisplatin-induced reduction in capsaicin-evoked CGRP release ([7]; 10 μM, 72 hour treatment, 10 μM cisplatin): did block the effect of cisplatin | CGRP release, drug alone ([7]; 10 μM, 72 hours): did not affect CGRP release | capsaicin-stimulated release of CGRP, drug alone ([7]; 20 μM, 72 hours): significant increase in capsaicin-stimulated release | effect on cisplatin-induced pH2AX levels (DNA damage) ([1]; 20 μM for 48 hours prior to and throughout exposure to 10 μM cisplatin): neither APX2007 nor APX2032 (20 μM) altered the ability of cisplatin to produce DNA damage | IC50 [8]: 7 µM

COc1cc(CNC(=O)CCCC/C=C/C(C)C)ccc1O [capsaicin]
release of CGRP stimulated by capsaicin ([3]; 30 nM capsaicin, 10-minute period, no inflammatory mediator): approximately 10 % of the total content
